The record followed here is patent publication US20100260680A1, “NOVEL BONE MASS INCREASING AGENT” (ORIENTAL YEAST CO., LTD., priority 2007, published 2010).

Bridges are numbered along the chain shown (N, C = ends). Where no end group is shown, it is not given here.

One test has as its system RAW264 cells. In words: TRAP activity in RAW264 cells with GST-RANKL. The test is classed as cell-based. How it is done:
Peptide E (SEQ ID NO: 16) was prepared from peptide D with the substitution of a single amino acid. TRAP activity and ALP activity were determined to compare peptide D and peptide E in terms of effects of causing osteoclast differentiation and osteoblast differentiation. RAW264 cells mixed with 10% FBS+αMEM (SIGMA) were seeded on a 96-well plate (2×10^3 cells/well). After confirmation of cell adhesion, the medium was replaced with 10% FBS+αMEM containing 10 nM GST-RANKL (Oriental Yeast Co., Ltd.). Peptide D and peptide E were separately added thereto at concentrations of 25, 50, 100, and 200 μM, followed by culture for 4 days. After the termination of culture, 100 μL acetone/ethanol was added to each well for cell fixation, followed by drying in a draft for 30 min.
In order to obtain a TRAP solution buffer at a concentration of 1.5 mg/mL, a solution was prepared by adjusting p-nitrophenyl phosphate (Nacalai) with 50 mM citric acid buffer and adding a 0.2 M sodium tartrate solution in a volume 1/10 that of citric acid buffer. The obtained TRAP solution buffer was added to each well in an amount of 100 μL followed by incubation at 37° C. for 45 min. Then, a 1N NaOH solution (50 μL) was added thereto to terminate the reaction. The OD value at 405 nm was determined for each well with a microplate reader (BMG Labtech) in the same manner as in Example 1.
RAW264 cells mixed with 10% FBS+αMEM (SIGMA) were seeded on a 96-well plate (2×10^3 cells/well). After cell adhesion had taken place, the medium was replaced with 10% FBS+αMEM containing 5 nM GST-RANKL (Oriental Yeast Co., Ltd.). Peptide D in the form of TFA, peptide D in the form of acetate, and peptide D in the form of hydrochloride with concentrations of 25 and 100 μM were separately added thereto, followed by culture for 4 days. After the completion of culture, acetone/ethanol (100 μL) was added to each well for cell fixation, followed by drying in a draft for 30 min. TRAP activity determination was carried out by the method described in Example 16. […] Peptide D in the form of hydrochloride was confirmed to have neither osteoblast differentiation activity nor osteoclastgenesis inhibition activity. However, peptide D in the form of acetate was confirmed to have higher osteoblast differentiation activity and lower osteoclastgenesis inhibition activity compared with peptide D in the form of TFA. […] It is also possible to produce modified peptide D having osteoblast differentiation activity alone or modified peptide D having osteoclastgenesis inhibition activity alone.

A further test concerns mouse tibia. In words: DNA microarray analysis of tibia of mice given peptide D. Particulars: peptide D acetate 10 mg/kg s.c. three times daily for 5 days; n=2. The test is classed as in vivo. How it is done:
Total RNA (2 μg) extracted from the tibia of each mouse described in Example 24 was used for a DNA microarray (each group: n=2). According to a standard method, DNA microarray analysis (Mouse Genome 430 2.0 Affymetrix) was carried out. In addition, scanning was performed with a GeneChip Scanner 3000 (Affymetrix 690036) and digitalization was performed using the Gene Chip Operating Software ver. 1.4.

The test system of test [1] is Human mesenchymal stem cells. In words: ALP staining of human mesenchymal stem cells. The test is classed as cell-based. Particulars: Day 7 after differentiation; compared with the control group. The protocol: Peptide D was added at a concentration of 300 μM during differentiation. On Day 7, cells were fixed with a 10% neutral buffer formalin solution, followed by re-fixation with an acetone/ethanol solution.
A stain solution (500 μL) prepared with the composition described below was added to the cells, followed by incubation at 37° C. for 10 minutes, washing with water, and drying.
Naphthol AS-MX phosphate (SIGMA): 5 mg
Fast blue hemi-salt (SIGMA): 30 mg

In the next test the test system is GSK3β. The test can be described thus: Western blotting of GSK3β phosphorylation in MC3T3-E1 cells. The format is cell-based, mouse. Particulars: 1 and 3 hours after the addition; 200 μM peptide D or 200 ng/ml BMP-2. How it is done:
MC3T3-E1 cells mixed with 10% FBS+αMEM (SIGMA) were seeded on a 6-well plate (7.5×10^4 cells/well). […] The medium was removed at the respective time points shown in the relevant figures. PBS was added to the cells, and the cells were collected with a scraper (Falcon). A cell pellet was obtained via centrifugation at 1200 rpm for 5 min at 4° C. RIPA buffer (100 μL) was added to the collected pellet, for dissolution of the cellular membrane. Further, the resultant was centrifuged under conditions of 14500 rpm for 25 min at 4° C. The supernatant was collected as a cell extract. A portion of the cell extract was used for quantification of the protein concentration with the use of a BCA protein assay kit (PIERCE). For SDS-PAGE, a sample buffer in an amount that was ¼ that of the cell extract (Fermentas) was added thereto, followed by heating at 95° C. for 5 min. The prepared sample was applied in an amount of 7.5 or 10 μg to 10% polyacrylamide gel (BioRad), followed by electrophoresis at 170 V for 1 hour. After electrophoresis, the electrophoresed sample was transferred to a PVDF membrane (Millipore) at 80 mA for 40 min. The membrane was shaken in a blocking solution (Nacalai) at room temperature for 1 hour and then a primary antibody was added thereto, followed by shaking at room temperature for 1 hour at 4° C. for 12 hours. […]
For orientation: Immunoblotting shows a protein as a band on a membrane.

Take “peptide D: cyclic peptide of SEQ ID NO: 7, 9 amino acids, two cysteine residues bound via a disulfide bond; binds to RANKL (YCWSQYLCY; disulfide 2-8 (inferred))”: in the test with RAW264 cells (25, 50, 100 and 200 μM, 10 nM GST-RANKL, 4 days), the TRAP activity entry was “inhibit TRAP activity”. Further, the “TRAP activity, peptide D compared with peptide E” value with RAW264 cells (100 and 200 μM) is “significant inhibition actions compared with peptide E”. For the same substance, in the test on mouse tibia, the “microarray signals of OC, ALP, CoL1 α2, PDGFc, PDGFRβ and IGF-1 in tibia” value is on record as “significantly higher signals”. Besides, in test [1], the ALP staining entry was “observed in a concentration-dependent manner”. For the same substance, in the test with GSK3β, the “phosphorylation of GSK3β” value is “confirmed to be induced”.
